Results reported in patent US9833497B2, “Human originated EGF domain proteins and use of the same” (CHENGDU SOURCEBIO LIMITED-LIABILITY COMPANY, priority 2013, dated 2017).

Tests used:
Format in all cases: cell-based
[1] = system: Enterobacter cloacae; experiment: MIC against Gram-negative bacteria: Enterobacter cloacae
In short: (§1)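 The recombinant human-originated EGF domain proteins were serially diluted two-fold against bacteria at 5×10^5 CFU/mL in LB medium. After shaken incubation at 37° C, the lowest concentration with no bacterial growth was recorded as the MIC.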

[2] = system: Pseudomonas aeruginosa; experiment: MIC against Gram-negative bacteria: Pseudomonas aeruginosa
In short: as §1

[3] = system: Serratia marcescens; experiment: MIC against Gram-negative bacteria: Serratia marcescens
In short: as §1

[4] = system: Proteus mirabilis; experiment: MIC against Gram-negative bacteria: Proteus mirabilis
In short: as §1

[5] = system: Moraxella catarrhalis; experiment: MIC against Gram-negative bacteria: Moraxella catarrhalis
In short: as §1

[6] = system: Citrobacter diversus; experiment: MIC against Gram-negative bacteria: Citrobacter diversus
In short: as §1

[7] = system: Proteus vulgaris; experiment: MIC against Gram-negative bacteria: Proteus vulgaris
In short: as §1

[8] = system: Aeromonas hydrophila; experiment: MIC against Gram-negative bacteria: Aeromonas hydrophila
In short: as §1

[9] = system: E. coli DH5α; experiment: Antibacterial activity: MIC and growth curve against E. coli DH5α in 96-well plate; conditions: minimal inhibitory concentration against E. coli DH5α; 96-well plate, 5×10^5 CFU/mL, 37° C., judged after 8 h
In short: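 Log-phase DH5α (OD600 about 0.5, 37° C, 185 rpm in LB) was pelleted, resuspended in fresh LB and seeded at 5×10^5 CFU/mL with recombinant protein at 50, 25 and 12.5 μg/mL (two-fold series), in triplicate. Plates were shaken at 175 rpm, 37° C, and OD600 was read every 30 min. MIC was the lowest concentration with no growth.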

[10] = system: E. coli BL21; experiment: MIC against Gram-negative bacteria: E. coli BL21
In short: as §1

[11] = system: Klebsiella pneumonia; experiment: MIC against Gram-negative bacteria: Klebsiella pneumonia
In short: as §1

[12] = Enterobacter cloacae, 5×10^5 CFU/mL, 10 h cultivation at 37° C.
[13] = Pseudomonas aeruginosa, 5×10^5 CFU/mL, 10 h cultivation at 37° C.
[14] = Serratia marcescens, 5×10^5 CFU/mL, 10 h cultivation at 37° C.
[15] = Proteus mirabilis, 5×10^5 CFU/mL, 10 h cultivation at 37° C.
[16] = Moraxella catarrhalis, 5×10^5 CFU/mL, 10 h cultivation at 37° C.
[17] = Citrobacter diversus, 5×10^5 CFU/mL, 10 h cultivation at 37° C.
[18] = Proteus vulgaris, 5×10^5 CFU/mL, 10 h cultivation at 37° C.
[19] = Aeromonas hydrophila, 5×10^5 CFU/mL, 10 h cultivation at 37° C.
[20] = E. coli BL21, 5×10^5 CFU/mL, 10 h cultivation at 37° C.
[21] = Klebsiella pneumonia, 5×10^5 CFU/mL, 10 h cultivation at 37° C.
[22] = E. cloacae, 10 h cultivation at 37° C., 5×10^5 CFU/mL
[23] = P. aeruginosa, 10 h cultivation at 37° C., 5×10^5 CFU/mL
[24] = S. marcescens, 10 h cultivation at 37° C., 5×10^5 CFU/mL
[25] = P. mirabilis, 10 h cultivation at 37° C., 5×10^5 CFU/mL
[26] = M. catarrhalis, 10 h cultivation at 37° C., 5×10^5 CFU/mL
[27] = C. diversus, 10 h cultivation at 37° C., 5×10^5 CFU/mL
[28] = P. vulgaris, 10 h cultivation at 37° C., 5×10^5 CFU/mL
[29] = A. hydrophila, 10 h cultivation at 37° C., 5×10^5 CFU/mL
[30] = E. coli BL21, 10 h cultivation at 37° C., 5×10^5 CFU/mL
[31] = K. pneumonia, 10 h cultivation at 37° C., 5×10^5 CFU/mL
[32] = 96-well plate, 5×10^5 CFU/mL, 37° C., 10 h
[33] = E. cloacae, 10 h cultivation at 37° C.
[34] = P. aeruginosa, 10 h cultivation at 37° C.
[35] = S. marcescens, 10 h cultivation at 37° C.
[36] = P. mirabilis, 10 h cultivation at 37° C.
[37] = M. catarrhalis, 10 h cultivation at 37° C.
[38] = C. diversus, 10 h cultivation at 37° C.
[39] = P. vulgaris, 10 h cultivation at 37° C.
[40] = A. hydrophila, 10 h cultivation at 37° C.
[41] = E. coli BL21, 10 h cultivation at 37° C.
[42] = K. pneumonia, 10 h cultivation at 37° C.
[43] = 10 h cultivation at 37° C., 5×10^5 CFU/mL, two-fold serial dilution

With “PRT1481 (PVNLCKPSPCMNEGSCVLQNGSYRCKCRDGWEGPHCE; listed as Homo sapiens)” the “MIC against E. cloacae” value [1, 12] was 50 µg/mL, the “MIC against P. aeruginosa” value [2, 13] was 50 µg/mL and the “MIC against S. marcescens” value [3, 14] was 25 µg/mL. The “MIC against P. mirabilis” value [4, 15] was 12.5 µg/mL, the “MIC against M. catarrhalis” value [5, 16] was 50 µg/mL and the “MIC against C. diversus” value [6, 17] was 12.5 µg/mL. For the same substance, the “MIC against P. vulgaris” value [7, 18] was 50 µg/mL, the “MIC against A. hydrophila” value [8, 19] was 25 µg/mL and the MIC [9] was 12.5 µg/mL. The “MIC against E. coli BL21” value [10, 20] was 25 µg/mL and the “MIC against K. pneumonia” value [11, 21] was 12.5 µg/mL.

With “PRT1235 (IGPQCEEMCNGQGSCINGTKCICDPGYSGPTCK; listed as Homo sapiens)” the “MIC against E. cloacae” value ([1]; Enterobacter cloacae, 96-well plate, 5×10^5 CFU/mL, 37° C., 10 h) was 25 µg/mL, the “MIC against P. aeruginosa” value ([2]; Pseudomonas aeruginosa, 96-well plate, 5×10^5 CFU/mL, 37° C., 10 h) was 25 µg/mL and the “MIC against S. marcescens” value ([3]; Serratia marcescens, 96-well plate, 5×10^5 CFU/mL, 37° C., 10 h) was 12.5 µg/mL. The “MIC against P. mirabilis” value ([4]; Proteus mirabilis, 96-well plate, 5×10^5 CFU/mL, 37° C., 10 h) was 12.5 µg/mL, the “MIC against M. catarrhalis” value ([5]; Moraxella catarrhalis, 96-well plate, 5×10^5 CFU/mL, 37° C., 10 h) was 12.5 µg/mL and the “MIC against C. diversus” value ([6]; Citrobacter diversus, 96-well plate, 5×10^5 CFU/mL, 37° C., 10 h) was 12.5 µg/mL. For the same substance, the “MIC against P. vulgaris” value ([7]; Proteus vulgaris, 96-well plate, 5×10^5 CFU/mL, 37° C., 10 h) was 50 µg/mL, the “MIC against A. hydrophila” value ([8]; Aeromonas hydrophila, 96-well plate, 5×10^5 CFU/mL, 37° C., 10 h) was 12.5 µg/mL and the MIC [9] was 12.5 µg/mL. The “MIC against E. coli BL21” value ([10]; E. coli BL21, 96-well plate, 5×10^5 CFU/mL, 37° C., 10 h) was 12.5 µg/mL and the “MIC against K. pneumonia” value ([11]; Klebsiella pneumonia, 96-well plate, 5×10^5 CFU/mL, 37° C., 10 h) was 12.5 µg/mL.

For “PRT200 (NFSTCLSSKEGTICSGNGVCSNELKCVCNRHWIGSDCN; listed as Homo sapiens)”, the “MIC (μg/mL) E. cloacae” value [1, 22] was 12.5 µg/mL, the “MIC (μg/mL) P. aeruginosa” value [2, 23] was 50 µg/mL and the “MIC (μg/mL) S. marcescens” value [3, 24] was 12.5 µg/mL. For the same substance, the “MIC (μg/mL) P. mirabilis” value [4, 25] was 12.5 µg/mL, the “MIC (μg/mL) M. catarrhalis” value [5, 26] was 25 µg/mL and the “MIC (μg/mL) C. diversus” value [6, 27] was 50 µg/mL. For the same substance, the “MIC (μg/mL) P. vulgaris” value [7, 28] was 50 µg/mL, the “MIC (μg/mL) A. hydrophila” value [8, 29] was 25 µg/mL and the MIC [9] was 12.5 µg/mL. For the same substance, the “MIC (μg/mL) E. coli BL21” value [10, 30] was 25 µg/mL and the “MIC (μg/mL) K. pneumonia” value [11, 31] was 25 µg/mL.

“PRT567 (CTCDPAGSQNEGICDSYTDFSTGLIAGQCRCKLNVEGEHCDVCKEGFYDLSSEDPFGCKS; listed as Homo sapiens)” was tested, and the “MIC against E. cloacae” value [1, 32] was 50 µg/mL, the “MIC against P. aeruginosa” value [2, 32] was 12.5 µg/mL and the “MIC against S. marcescens” value [3, 32] was 12.5 µg/mL. For the same substance, the “MIC against P. mirabilis” value [4, 32] was 12.5 µg/mL, the “MIC against M. catarrhalis” value [5, 32] was 50 µg/mL and the “MIC against C. diversus” value [6, 32] was 12.5 µg/mL. For the same substance, the “MIC against P. vulgaris” value [7, 32] was 12.5 µg/mL, the “MIC against A. hydrophila” value [8, 32] was 25 µg/mL and the MIC [9] was 50 µg/mL. For the same substance, the “MIC against E. coli BL21” value [10, 32] was 25 µg/mL and the “MIC against K. pneumonia” value [11, 32] was 25 µg/mL.

“PRT1008 (ELDACQSQPCHNHGTCTPKPGGFHCACPPGFVGLRCE; listed as Homo sapiens)” showed an MIC [1, 33] of 50 µg/mL, an MIC [2, 34] of 12.5 µg/mL and an MIC [3, 35] of 25 µg/mL. It also gave an MIC [4, 36] of 25 µg/mL, an MIC [5, 37] of 12.5 µg/mL and an MIC [6, 38] of 50 µg/mL. It also gave an MIC [7, 39] of 50 µg/mL, an MIC [8, 40] of 12.5 µg/mL and an MIC [9] of 50 µg/mL. For the same substance, the MIC [10, 41] was 12.5 µg/mL and the MIC [11, 42] was 12.5 µg/mL.

For “PRT1017 (NPDNCVSHQCQNGGTCQDGLDTYTCLCPETWTGWDCS; listed as Homo sapiens)”, the MIC [1, 33] was 12.5 µg/mL, the MIC [2, 34] was 12.5 µg/mL and the MIC [3, 35] was 50 µg/mL. For the same substance, the MIC [4, 36] was 50 µg/mL, the MIC [5, 37] was 12.5 µg/mL and the MIC [6, 38] was 12.5 µg/mL. For the same substance, the MIC [7, 39] was 12.5 µg/mL, the MIC [8, 40] was 12.5 µg/mL and the MIC [9] was 50 µg/mL. The MIC [10, 41] was 12.5 µg/mL and the MIC [11, 42] was 12.5 µg/mL.

With “PRT1420 (GAWDCSVENGGCEHACNAIPGAPRCQCPAGAALQADGRSCT; listed as Homo sapiens)” the “MIC against E. cloacae” value [1, 12] was 12.5 µg/mL, the “MIC against P. aeruginosa” value [2, 13] was 12.5 µg/mL and the “MIC against S. marcescens” value [3, 14] was 50 µg/mL. For the same substance, the “MIC against P. mirabilis” value [4, 15] was 12.5 µg/mL, the “MIC against M. catarrhalis” value [5, 16] was 25 µg/mL and the “MIC against C. diversus” value [6, 17] was 12.5 µg/mL. The “MIC against P. vulgaris” value [7, 18] was 25 µg/mL, the “MIC against A. hydrophila” value [8, 19] was 25 µg/mL and the MIC [9] was 12.5 µg/mL. For the same substance, the “MIC against E. coli BL21” value [10, 20] was 12.5 µg/mL and the “MIC against K. pneumonia” value [11, 21] was 12.5 µg/mL.

With “PRT424 (DINECVTDLHTCSRGEHCVNTLGSFHCYKALTCEPGYALKDGECE; listed as Homo sapiens)” the MIC [1, 22] was 25 µg/mL, the MIC [2, 23] was 25 µg/mL and the MIC [3, 24] was 25 µg/mL. For the same substance, the MIC [4, 25] was 25 µg/mL, the MIC [5, 26] was 12.5 µg/mL and the MIC [6, 27] was 25 µg/mL. For the same substance, the MIC [7, 28] was 50 µg/mL, the MIC [8, 29] was 50 µg/mL and the MIC [9] was 25 µg/mL. For the same substance, the MIC [10, 30] was 50 µg/mL and the MIC [11, 31] was 12.5 µg/mL.

In the case of “PRT1114 (PSKECSLNVTCLDGSPCEGGSPAANCSCLEGLAGQRCQ; listed as Homo sapiens)”, the “MIC E. cloacae” value [1, 43] is reported as 25 µg/mL, the “MIC P. aeruginosa” value [2, 43] is reported as 25 µg/mL and the “MIC S. marcescens” value [3, 43] is reported as 12.5 µg/mL. The “MIC P. mirabilis” value [4, 43] was 50 µg/mL, the “MIC M. catarrhalis” value [5, 43] was 25 µg/mL and the “MIC C. diversus” value [6, 43] was 12.5 µg/mL. The “MIC P. vulgaris” value [7, 43] was 25 µg/mL, the “MIC A. hydrophila” value [8, 43] was 25 µg/mL and the MIC [9] was 25 µg/mL. For the same substance, the “MIC E. coli BL21” value [10, 43] was 12.5 µg/mL and the “MIC K. pneumonia” value [11, 43] was 50 µg/mL.

With “PRT417 (DVNECQRYPGRLCGHKCENTLGSYLCSCSVGFRLSVDGRSCE; listed as Homo sapiens)” the MIC [1, 22] was 25 µg/mL, the MIC [2, 23] was 25 µg/mL and the MIC [3, 24] was 12.5 µg/mL. The MIC [4, 25] was 12.5 µg/mL, the MIC [5, 26] was 12.5 µg/mL and the MIC [6, 27] was 25 µg/mL. The MIC [7, 28] was 12.5 µg/mL, the MIC [8, 29] was 12.5 µg/mL and the MIC [9] was 25 µg/mL. For the same substance, the MIC [10, 30] was 50 µg/mL and the MIC [11, 31] was 12.5 µg/mL.
